The record followed here is patent publication US20090137391A1, “Use of benzyladenine to improve emergence of seeds treated with abscisic acid” (priority 2007, published 2009).

Holding throughout (assay type): in vivo
Assay [1] concerns canola seed. As to the kind of experiment: Canola seed treatment, soil emergence: ABA-dose x benzyladenine (as Maxcel) dose factorial. As to the method:
(§1) The seed was planted in plastic boxes containing 1 kg of typical agricultural silt loam. One hundred seeds were planted 2 cm deep in each plastic box, and the soil in the box was adjusted to 21% soil moisture (wet-weight basis). Two replications of the experiment were incubated under constant light in a 10° C. chamber. The soil temperature averaged 12.6° C. The boxes were watered up to the correct weight every 1-2 days, and checked for emergence. Counts of seedlings were continued until it became clear that emergence had ceased (28 days). The final count of emerged seedlings was expressed as a percentage of the 100 seeds planted.
(§2) The daily counts were converted to proportions of the final emergence of the box, and a Gompertz curve was fitted to the data from each box using SAS Proc NLIN. From the parameters of the model, median emergence time (T50) and quartile range (Qrange) were estimated for each box. Analysis of variance was performed and means calculated for each of the three responses (Final emergence, T50, Qrange).
The experiment was set up as an ABA-dose x benzyladenine-dose factorial experiment, with four doses of ABA (0, 25, 50 and- 100 g/cwt) and three doses of benzyladenine (0, 1 and 5 g/cwt) for a total of 12 treatment combinations. The treatments were made up in 1 ml samples of experimental aqueous seed treatment slurry. ABA was added in the form of a water solution of the ammonium salt. Benzyladenine was added in the form of Maxcel. Treatments receiving less than the maximum amount of Maxcel, received an appropriate amount of Maxcel blank formulation, so that each slurry sample was identical with regard to Maxcel inert ingredients. All of the seed treatment slurry samples contained CF-Clear film-forming agent and Colorcoat Red (Becker Underwood), each at 1 oz/cwt, and 0.167 oz/cwt Maxim XL fungicide (Syngenta). The slurry application volume was 40 oz/cwt (cwt=100 lbs of seed). Ten gram samples of canola seed were treated with the experimental slurries using a Hege 11 seed treater with a six-inch bowl.
The seed was germinated and data analyzed as described under Example 1.

The subject of assay [2] is canola seed. As to the kind of experiment: Canola seed treatment, soil emergence: ABA-dose x benzyladenine (technical powder) dose factorial. The procedure:
The experiment was set up as an ABA-dose×BA-dose factorial experiment, with four doses of ABA (0, 25, 50, and 100 g/cwt) and four doses of benzyladenine (0, 1, 5 and 25 g/cwt) for a total of 16 treatment combinations. The treatments were made up in 1 ml samples of experimental aqueous seed treatment slurry. ABA was added in the form of a water solution of the ammonium salt. Benzyladenine was added as technical powder. Ten μl Tween-20 were added to each sample to help wet and suspend the benzyladenine powder. All of the seed treatment slurry samples contained CF-Clear film-forming agent and Color Coat Red (Becker Underwood), each at 1 oz/cwt, and 0.167 oz/cwt Maxim XL fungicide (Syngenta). The slurry application volume was 40 […]=100 lbs of seed). Ten gram samples of canola seed were treated with the experimental slurries using a Hege 11 seed treater with a six-inch bowl. The seed was planted in plastic boxes containing 1 kg of typical agricultural silt loam. One hundred seeds were planted 2 cm deep in each plastic box, and the soil in the box was adjusted to 21% soil moisture (wet-weight basis). Two replications of the experiment were incubated under constant light in a 10° C. chamber. The soil temperature averaged 12.6° C. The boxes were watered up to the correct weight every 1-2 days, and checked for emergence. Counts of seedlings were continued until it became clear that emergence had ceased (28 days). The final count of emerged seedlings was expressed as a percentage of the 100 seeds planted. The daily counts were converted to proportions of the final emergence of the box, and a Gompertz curve was fitted to the data from each box using SAS Proc NLIN. […] Analysis of variance was performed and means calculated for each of the three responses (Final emergence, […]).

Assay [3] deals with canola seed. Put plainly: Canola seed treatment, soil emergence: ABA-dose x CPPU (as Prestige) dose factorial. The procedure: as §1, §2
The experiment was set up as an ABA-dose×CPPU-dose factorial experiment, with four doses of ABA (0, 25, 50 and 100 g/cwt) and […] doses of CPPU (0, 0.04, 0.2 and 1 g/cwt) for a total of 16 treatment combinations. The treatments were made up in 1 ml samples of experimental aqueous seed treatment slurry. ABA was added as the free acid. CPPU was added in the form of Prestige®. Treatments receiving less than the maximum amount of Prestige, received an appropriate amount of Prestige blank formulation, so that each slurry sample was identical with regard to Prestige inert ingredients. All of the seed treatment slurry samples contained CF-Clear film-forming agent and Colorcoat Red (Becker Underwood), each at 1 oz/cwt, and 0.167 oz/cwt Maxim XL fungicide (Syngenta). The slurry application volume was 40 oz/cwt (cwt=100 lbs of seed). Ten gram samples of canola seed were treated with the experimental slurries using a Hege 11 seed treater with a six-inch bowl.
The seed was germinated and data analyzed as described under Example 1, except that emergence, being unusually low in this trial, rendered the quartile range estimates unreliable. Therefore, quartile range values are not shown.

The subject of assay [4] is canola seed. As to the kind of experiment: Canola seed treatment, soil emergence: ABA-dose x GA4/7 dose factorial. Particulars: for Final emergence / QR / T50: GA4/7 dose 0 g/cwt. The procedure: The experiment was set up as an ABA-dose×GA4/7-dose factorial experiment, with four doses of ABA (0, 25, 50 and 100 g/cwt) and […] doses of GA4/7 (0, 1, 5 and 25 g/cwt) for a total of 16 treatment combinations. The treatments were made up in 1 ml samples of experimental aqueous seed treatment slurry. ABA and GA4/7 were added as the free acid technical powders. All of the seed treatment slurry samples contained CF-Clear film-forming agent and Colorcoat Red (Becker Underwood), each at 1 oz/cwt, and 0.167 oz/cwt Maxim XL fungicide (Syngenta). The slurry application volume was 40 oz/cwt (cwt=100 lbs of seed). Ten gram samples of canola seed were treated with the experimental slurries using a Hege 11 seed treater with a six-inch bowl.

Setting [5] is: ABA dose 0 g/cwt, Benzyladenine dose 1 g/cwt (in the form of Maxcel).
The mark [6] stands for this setting: ABA dose 0 g/cwt, Benzyladenine dose 5 g/cwt (in the form of Maxcel).
Setting [7] is: ABA dose 0 g/cwt, Benzyladenine dose 1 g/cwt (technical powder).
[8] abbreviates: ABA dose 0 g/cwt, Benzyladenine dose 5 g/cwt (technical powder).
[9] abbreviates: ABA dose 0 g/cwt, Benzyladenine dose 25 g/cwt (technical powder).
Setting [10] is: ABA dose 0 g/cwt, CPPU dose 0.04 g/cwt (in the form of Prestige).
Setting [11] is: ABA dose 0 g/cwt, CPPU dose 0.2 g/cwt (in the form of Prestige).
[12] abbreviates: ABA dose 0 g/cwt, CPPU dose 1 g/cwt (in the form of Prestige).
Where [13] appears, read: ABA (ammonium salt) dose 25 g/cwt, Benzyladenine dose 0 g/cwt (Maxcel blank).
[14] abbreviates: ABA (ammonium salt) dose 50 g/cwt, Benzyladenine dose 0 g/cwt (Maxcel blank).
[15] abbreviates: ABA (ammonium salt) dose 100 g/cwt, Benzyladenine dose 0 g/cwt (Maxcel blank).
The mark [16] stands for this setting: ABA (free acid) dose 25 g/cwt, CPPU dose 0 g/cwt (Prestige blank).
Where [17] appears, read: ABA (free acid) dose 50 g/cwt, CPPU dose 0 g/cwt (Prestige blank).
The mark [18] stands for this setting: ABA (free acid) dose 100 g/cwt, CPPU dose 0 g/cwt (Prestige blank).
[19] abbreviates: ABA (ammonium salt) dose 25 g/cwt, Benzyladenine dose 0 g/cwt.
Where [20] appears, read: ABA (ammonium salt) dose 50 g/cwt, Benzyladenine dose 0 g/cwt.
Where [21] appears, read: ABA (ammonium salt) dose 100 g/cwt, Benzyladenine dose 0 g/cwt.

With `c1ccc(CNc2[nH]cnc3ncnc2-3)cc1` [Benzyladenine, N^6-phenylmethyl-1H-purin-6-amine], the Final emergence in the assay on canola seed [1] (setting [5]) was found to be 97.5%; in the assay on canola seed [1] (setting [6]), 97.1%; with canola seed [2] (setting [7]) it was 98.0%; in the assay on canola seed [2] (setting [8]) it was 91.6%; with canola seed [2] (setting [9]), 89.9%. Further, the Qrange in the assay with canola seed [1] (setting [5]) was 1.84 days; in the assay with canola seed [1] (setting [6]), 1.77 days; with canola seed [2] (setting [7]), 1.30 days; with canola seed [2] (setting [8]), 2.36 days; with canola seed [2] (setting [9]), 3.02 days. Moreover, the T50 with canola seed [1] (setting [5]) is reported as 6.02 days; in the assay with canola seed [1] (setting [6]) it was 6.09 days; in the assay on canola seed [2] (setting [7]), 6.37 days; with canola seed [2] (setting [8]) it was 6.76 days; with canola seed [2] (setting [9]) it was 7.88 days.

With `O=C(Nc1ccccc1)Nc1ccnc(Cl)c1` [CPPU], the Final emergence in the assay on canola seed [3] (setting [10]) is 80.3%; in the assay on canola seed [3] (setting [11]) it was 78.1%; with canola seed [3] (setting [12]), 77.6%. The results for the T50 in the assay with canola seed [3] (setting [10]), in the assay on canola seed [3] (setting [11]) and in the assay with canola seed [3] (setting [12]) were 7.12 days, 7.48 days and 8.30 days, respectively.

Take S-(+)- abscisic acid [ABA]: the Final emergence in the assay on canola seed [4] (ABA (free acid) dose 25 g/cwt) came out at 84.0%; in the assay with canola seed [4] (ABA (free acid) dose 50 g/cwt), 66.0%; with canola seed [4] (ABA (free acid) dose 100 g/cwt), 48.0%; in the assay on canola seed [1] (setting [13]), 92.9%; in the assay on canola seed [1] (setting [14]), 91.4%; with canola seed [1] (setting [15]), 49.5%. The “Final emergence” value in the assay with canola seed [1] (ABA at a dose of 100 g/cwt) is on record as “roughly cut in half”; in the assay with canola seed [3] (setting [16]), 84.0%; with canola seed [3] (setting [17]) it was 66.0%; in the assay with canola seed [3] (setting [18]) it was 48.0%; in the assay with canola seed [2] (setting [19]) it was 92.3%; in the assay with canola seed [2] (setting [20]), 68.9%. Besides, the values for the Final emergence with canola seed [2] (setting [21]) and with canola seed [2] (ABA at a dose of 100 g/cwt) were 53.5% and “roughly cut in half”, respectively. Besides, the QR in the assay on canola seed [4] (ABA (free acid) dose 25 g/cwt) is given as 3.33 days; with canola seed [4] (ABA (free acid) dose 50 g/cwt), 3.38 days; in the assay on canola seed [4] (ABA (free acid) dose 100 g/cwt) it was 5.69 days. Moreover, the T50 in the assay on canola seed [4] (ABA (free acid) dose 25 g/cwt) amounted to 10.42 days; in the assay on canola seed [4] (ABA (free acid) dose 50 g/cwt), 12.16 days; with canola seed [4] (ABA (free acid) dose 100 g/cwt), 16.48 days; in the assay on canola seed [1] (setting [13]), 8.17 days; with canola seed [1] (setting [14]) it was 10.57 days; in the assay on canola seed [1] (setting [15]), 13.61 days. The T50 in the assay with canola seed [3] (setting [16]) came out at 10.4 days; with canola seed [3] (setting [17]), 12.16 days; in the assay on canola seed [3] (setting [18]), 16.48 days; in the assay on canola seed [2] (setting [19]), 9.15 days; in the assay with canola seed [2] (setting [20]), 11.20 days; in the assay with canola seed [2] (setting [21]), 12.74 days. Besides, the “emergence” value was “significant and important reduction in emergence” with canola seed [4] (high doses of ABA alone); “significant and important reduction in emergence” in the assay on canola seed [3] (high doses of ABA). Also, the Qrange in the assay on canola seed [1] (setting [13]) is reported as 2.06 days; in the assay on canola seed [1] (setting [14]) it was 3.74 days; in the assay on canola seed [1] (setting [15]) it was 5.84 days; with canola seed [2] (setting [19]), 3.26 days; with canola seed [2] (setting [20]), 4.27 days; with canola seed [2] (setting [21]) it was 4.27 days.
